Assay type in all cases: biochemical
The target in one test is T1, human FLT4 (Homo sapiens, UniProt P35916).
T1 construct: a construct expressing the human FLT4 (789-1207) with an amino terminal GST tag; host or cells: Sf9 insect cells (baculovirus)
Put plainly: FLT4 kinase assay (DELFIA enzyme inhibition). As to conditions: read-out: FLT4 IC50. In short, it runs like this: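 GST-tagged human FLT4 (789-1207) from Sf9 cells phosphorylates a biotinylated MET (Tyr1253)-derived peptide for 30 min at room temperature, stopped with EDTA. Phosphopeptide is captured on Neutravidin and detected with Eu-labelled anti-phosphotyrosine antibody by time-resolved fluorescence; IC50 from % inhibition curves.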

Another test deals with T2, human FLT3 (Homo sapiens, UniProt P36888).
T2 construct: a construct expressing the human FLT3 (564-993) with an amino terminal GST tag; host or cells: Sf9 insect cells (baculovirus)
T2 sequence (P36888 564-993): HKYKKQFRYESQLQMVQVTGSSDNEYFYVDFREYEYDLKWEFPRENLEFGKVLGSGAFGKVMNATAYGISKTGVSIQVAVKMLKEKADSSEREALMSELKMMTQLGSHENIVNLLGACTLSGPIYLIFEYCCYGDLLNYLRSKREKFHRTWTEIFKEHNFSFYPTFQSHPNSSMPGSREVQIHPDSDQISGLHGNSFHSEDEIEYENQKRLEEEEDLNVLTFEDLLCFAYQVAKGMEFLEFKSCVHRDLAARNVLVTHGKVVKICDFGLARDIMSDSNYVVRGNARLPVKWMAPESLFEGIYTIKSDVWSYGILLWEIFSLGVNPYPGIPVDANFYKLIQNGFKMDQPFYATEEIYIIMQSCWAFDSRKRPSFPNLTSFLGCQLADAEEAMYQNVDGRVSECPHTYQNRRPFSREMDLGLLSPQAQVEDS
Briefly: FLT3 kinase assay (DELFIA enzyme inhibition). The protocol: A GST-kinase fusion protein of 70 KDa was produced using sf9 baculovirus expression system, with a construct expressing the human FLT3 (564-993) with an amino terminal GST tag. The protein was purified by one-step affinity chromatography using glutathione-agarose.
FLT3 enzyme activity is determined using a Dissociation Enhanced Lanthanide Fluorescent Immunoassay (DELFIA) with a peptide substrate derived from the Gastrin Precursor (Tyr 87) peptide […] with a core sequence: EAYGW.
The amount of phosphorylated peptide produced is detected by means of a phospho-Tyrosine specific Europium-labelled antibody using Time-Resolved Fluorescence at Excitation 360-35 nm and Emission 620-35 nm.
Assay reactions are set up in a 25 uL final volume on a 96 well plate. […] The reaction is allowed to proceed for 30 minutes at room temperature before stopping with 100 μL Stop solution comprising of 100 mM EDTA, 1×BSA blocker in TBS (Perbio) and 0.05% Surfact-Amps20 (Perbio).
The stopped reaction is transferred to a black 96-well Neutravidin-coated plate (Perbio) and incubated for 30 minutes to capture the biotinylated peptide substrate. After washing wells 3 times with 200 uL TBS/T buffer, Anti-Phospho-Tyr-100 antibody labelled with Eu—N1 (Perkin Elmer AD0159) is added to all wells for 60 minutes at room temperature. After a repeat washing step, DELFIA Enhancement solution (Perkin Elmer) is added to all wells for 5 minutes and the fluorescence measured on a plate reader Analyst HT (Molecular Devices).
The % inhibition of the activity is calculated and plotted in order to determine the concentration of test compound required to inhibit 50% of the enzyme activity (IC50).

Another test concerns the target T3, human Aurora A (Homo sapiens, UniProt O14965).
T3 construct: Histidine tag (N); host or cells: Sf9 insect cells (baculovirus)
T3 sequence (O14965 1-403): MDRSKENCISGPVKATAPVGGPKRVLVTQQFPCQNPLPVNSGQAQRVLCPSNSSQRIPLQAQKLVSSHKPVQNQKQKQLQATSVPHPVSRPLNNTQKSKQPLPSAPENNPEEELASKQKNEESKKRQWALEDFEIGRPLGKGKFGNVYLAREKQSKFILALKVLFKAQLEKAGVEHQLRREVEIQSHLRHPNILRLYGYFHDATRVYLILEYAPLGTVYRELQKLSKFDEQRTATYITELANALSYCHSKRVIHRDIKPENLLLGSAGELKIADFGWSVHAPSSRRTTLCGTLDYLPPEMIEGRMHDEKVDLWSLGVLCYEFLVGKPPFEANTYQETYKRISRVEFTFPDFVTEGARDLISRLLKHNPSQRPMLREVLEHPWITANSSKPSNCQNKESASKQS
Put plainly: Aurora A kinase assay (DELFIA enzyme inhibition). Conditions: read-out: Aurora A IC50. In short, it runs like this: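 DELFIA read-out (time-resolved Eu fluorescence, 620 nm emission) after Neutravidin capture of biotinylated peptide substrate and antibody detection. Reaction: Ni-agarose-purified Aurora A, 30 min at room temperature, stopped with 100 mM EDTA.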

Usually IC50 stands for the concentration needed to halve the response being measured.

Counter-ions that a name gives are not always drawn.

T1 sequence (P35916 789-1207): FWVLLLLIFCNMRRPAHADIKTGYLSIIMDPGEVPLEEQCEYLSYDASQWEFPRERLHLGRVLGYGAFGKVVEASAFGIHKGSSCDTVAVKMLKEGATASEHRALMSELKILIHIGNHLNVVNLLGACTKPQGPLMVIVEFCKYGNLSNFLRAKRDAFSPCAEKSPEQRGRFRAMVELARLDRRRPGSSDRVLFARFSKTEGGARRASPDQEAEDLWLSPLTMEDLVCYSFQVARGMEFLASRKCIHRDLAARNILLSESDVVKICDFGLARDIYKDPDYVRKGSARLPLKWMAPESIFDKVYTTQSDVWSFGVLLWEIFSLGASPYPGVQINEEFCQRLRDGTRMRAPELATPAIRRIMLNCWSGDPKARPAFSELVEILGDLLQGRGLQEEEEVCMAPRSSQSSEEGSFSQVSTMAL

Take `NC(=O)c1nc(-c2c(F)cccc2F)oc1-c1ccc(N2CCNCC2)nc1` [Example G-2, 2-(2,6-difluorophenyl)-5-(6-(piperazin-1-yl)pyridin-3-yl)oxazole-4-carboxamide dihydrochloride]: the IC50 on human FLT4, at human FLT3 and on human Aurora A was under 10 µM each time.
Consider `COc1ccc(-c2oc(Nc3ccccc3C)nc2C(N)=O)cc1` [Example R-5, 2-(o-toluidino)-5-(4-methoxyphenyl)oxazole-4-carboxamide], for which the IC50 at human FLT4, on human FLT3 and on human Aurora A was under 10 µM throughout.
As to `NC(=O)c1nc(-c2c(F)cccc2F)oc1Nc1ccc(NC(=O)C2CCCNC2)cc1` (stereo not drawn) [Example V-4, N-(4-(4-carbamoyl-2-(2,6-difluorophenyl)oxazol-5-ylamino)phenyl)piperidine-3-carboxamide], the IC50 on human FLT4, against human FLT3 and at human Aurora A was under 10 µM throughout.
As for `NC(=O)c1nc(-c2c(F)cccc2F)oc1Nc1ccc(C(=O)N2CCNCC2)cc1` [Example Q-22, 2-(2,6-difluorophenyl)-5-(4-(piperazine-1-carbonyl)phenylamino)oxazole-4-carboxamide], the IC50 on human FLT4, at human FLT3 and at human Aurora A was under 10 µM in each case.
Consider `CN1CCN(c2ccc(-c3oc(-c4c(F)cccc4F)nc3C(N)=O)cn2)CC1` [Example H-2, 2-(2,6-difluorophenyl)-5-(6-(4-methylpiperazin-1-yl)pyridin-3-yl)oxazole-4-carboxamide], for which the IC50 at human FLT4, at human FLT3 and at human Aurora A was under 10 µM each time.
Consider `CNC(=O)N1CCN(c2ccc(-c3oc(-c4c(F)cccc4F)nc3C(N)=O)cc2)CC1` [Example J-1, 4-(4-(4-carbamoyl-2-(2,6-difluorophenyl)oxazol-5-yl)phenyl)-N-methylpiperazine-1-carboxamide], for which the IC50 at human FLT4, against human FLT3 and at human Aurora A was under 10 µM each time.
For `CN1CCN(C(=O)c2ccc(Nc3oc(-c4c(F)cccc4F)nc3C(N)=O)cc2)CC1CCO` (stereo not drawn) [Example U-24, 2-(2,6-difluorophenyl)-5-(4-(2-(2-hydroxyethyl)-1-methylpiperazine-4-carbonyl)phenylamino)oxazole-4-carboxamide], the IC50 at human FLT4, at human FLT3 and on human Aurora A was under 10 µM each time.
Regarding `CC(C)(C)OC(=O)N1CCC(NC(=O)c2ccc(Nc3oc(-c4c(F)cccc4F)nc3C(N)=O)cc2)CC1` [Example U-20, tert-butyl 4-(4-(4-carbamoyl-2-(2,6-difluorophenyl)oxazol-5-ylamino)benzamido) piperidine-1-carboxylate], the IC50 is under 10 µM on human FLT4, under 10 µM on human FLT3 and under 100 µM on human Aurora A.
For `NCc1ccc(-c2oc(-c3c(F)cccc3F)nc2C(N)=O)cc1` [Example F-16, 5-(4-(aminomethyl)phenyl)-2-(2,6-difluorophenyl)oxazole-4-carboxamide], the IC50 at human FLT4 was under 10 µM; on human FLT3, under 100 µM; on human Aurora A, under 10 µM.
On to `NC(=O)c1nc(-c2c(F)cccc2F)oc1-c1ccc(OCCN2CCC(O)CC2)cc1` [Example S-4, 2-(2,6-difluorophenyl)-5-(4-(2-(4-hydroxypiperidin-1-yl)ethoxy)phenyl)oxazole-4-carboxamide], for which the IC50 on human FLT4 was under 10 µM; on human FLT3 it was under 100 µM; at human Aurora A, under 10 µM.
As to `NC(=O)c1nc(-c2c(F)cccc2F)oc1-c1ccc(N)cc1` [Example F-22, 5-(4-aminophenyl)-2-(2,6-difluorophenyl)oxazole-4-carboxamide], the IC50 at human FLT4, on human FLT3 and at human Aurora A was under 10 µM each time.
As for `CN1CCN(C(=O)Nc2ccc(Nc3oc(-c4c(F)cccc4F)nc3C(N)=O)cc2)CC1` [Example V-2, N-(4-(4-carbamoyl-2-(2,6-difluorophenyl)oxazol-5-ylamino)phenyl)-4-methyl piperazine-1-carboxamide], the IC50 on human FLT4, at human FLT3 and on human Aurora A was under 10 µM in each case.
For the compound `NC(=O)c1nc(-c2c(F)cccc2F)oc1Nc1ccc(C2=NNC(=O)C2)cc1` [Example Q-32, 2-(2,6-difluorophenyl)-5-(4-(5-oxo-4,5-dihydro-1H-pyrazol-3-yl)phenylamino)oxazole-4-carboxamide], the IC50 at human FLT4, on human FLT3 and on human Aurora A was under 10 µM each time.
For `COc1ccc(-c2oc(-c3ccccc3F)nc2C(N)=O)cc1` [Example M-3, 2-(2-fluorophenyl)-5-(4-methoxyphenyl)oxazole-4-carboxamide], the IC50 is under 10 µM on human FLT4, under 100 µM at human FLT3 and under 100 µM on human Aurora A.
Take `COc1ccc(-c2oc(-c3cn[nH]c3)nc2C(N)=O)cc1` [Example N-2, 5-(4-methoxyphenyl)-2-(1H-pyrazol-4-yl)oxazole-4-carboxamide]: the IC50 on human FLT4 was under 10 µM; against human FLT3, under 100 µM; at human Aurora A it was under 10 µM.
On to `NC(=O)c1nc(-c2c(F)cccc2F)oc1-c1ccc(OCC(O)CN2CCOCC2)cc1` (stereo not drawn) [Example T-2, 2-(2,6-difluorophenyl)-5-(4-(2-hydroxy-3-morpholinopropoxy)phenyl)oxazole-4-carboxamide], for which the IC50 on human FLT4, at human FLT3 and at human Aurora A was under 10 µM each time.
In the case of `NC(=O)c1nc(-c2c(F)cccc2F)oc1Nc1ccc(C(=O)NCCO)cc1` [Example U-16, 5-(4-((2-hydroxyethyl)carbamoyl)phenylamino)-2-(2,6-difluorophenyl)oxazole-4-carboxamide], the IC50 at human FLT4, on human FLT3 and at human Aurora A was under 10 µM each time.
Regarding `COc1ccc(-c2nc(-c3c[nH]c4ccc(OC)cc34)[nH]c2C(N)=O)cc1` [Example B-2, 2-(5-methoxy-1H-indol-3-yl)-4-(4-methoxyphenyl)-1H-imidazole-5-carboxamide], the IC50 is under 10 µM at human FLT4, under 10 µM on human FLT3 and under 100 µM on human Aurora A.
For the compound `NC(=O)c1nc(-c2c(F)cccc2F)oc1-c1ccc(OCCCN2CCCCC2)cc1` [Example S-12, 2-(2,6-difluorophenyl)-5-(4-(3-(piperidin-1-yl)propoxy)phenyl)oxazole-4-carboxamide], the IC50 at human FLT4, at human FLT3 and at human Aurora A was under 10 µM throughout.
Take `NC(=O)c1nc(-c2c(F)cccc2F)oc1Nc1ccc(S(=O)(=O)N2CCOCC2)cc1` [Example Q-29, 2-(2,6-difluorophenyl)-5-(4-(morpholinosulfonyl)phenylamino)oxazole-4-carboxamide]: the IC50 on human FLT4, at human FLT3 and on human Aurora A was under 10 µM each time.
Regarding `NC(=O)c1nc(-c2c(F)cccc2F)oc1Nc1ccc(N2CCNCC2)nc1` [Example Q-47, 2-(2,6-difluorophenyl)-5-(6-(piperazin-1-yl)pyridin-3-ylamino)oxazole-4-carboxamide], the IC50 at human FLT4, on human FLT3 and at human Aurora A was under 10 µM each time.

These data come from patent US9187465B2, “Oxazole tyrosine kinase inhibitors” (Sareum Limited, priority 2007, dated 2015).
